The values below come from patent US9677045B2, “Microorganisms and methods for production of 4-hydroxybutyrate, 1,4-butanediol and related compounds” (priority 2012, dated 2017).

The subject of one experiment is Alcohol dehydrogenase. The experiment in a line: Alcohol dehydrogenase (ADH) assay in the reductive direction, cell extracts. To be noted: extracts of MG1655 lacI^Q with pZA33.
For the next experiment, the system named is Aldehyde dehydrogenase. As to the kind of experiment: Aldehyde dehydrogenase (ALD) assay in the reductive direction, cell extracts. To be noted: extracts of MG1655 lacI^Q with pZA33.
The target of the next experiment is homoserine kinase (Escherichia coli, UniProt P00547). The settings on record: cited from earlier work; for % kcat: relative to L-homoserine.
homoserine kinase, sequence (P00547 whole entry): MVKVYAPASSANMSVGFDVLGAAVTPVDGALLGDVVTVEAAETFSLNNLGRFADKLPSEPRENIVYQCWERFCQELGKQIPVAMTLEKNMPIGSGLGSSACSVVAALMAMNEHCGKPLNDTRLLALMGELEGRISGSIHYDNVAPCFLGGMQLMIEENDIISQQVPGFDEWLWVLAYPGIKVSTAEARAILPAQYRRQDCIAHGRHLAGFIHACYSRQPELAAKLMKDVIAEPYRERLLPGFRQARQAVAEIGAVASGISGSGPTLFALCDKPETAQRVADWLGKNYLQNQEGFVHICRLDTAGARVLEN
The test system of experiment [1] is aminotransferase from Leishmania mexicana. The settings on record: activity considered 100% on tyrosine; enzyme expressed in E. coli; cited from earlier work.
Experiment [2] relates to 4-HB to BDO conversion pathway. As to the kind of experiment: Production of BDO from 10 mM 4-HB in recombinant E. coli strains.
Method: For the BDO production experiments, cat2 from Porphyromonas gingivalis W83 (gene 0034) was included on pZA33 for the conversion of 4-HB to 4-HB-CoA, while the candidate dehydrogenase genes were expressed on pZE13. The host strain was MG1655 lacI^Q. Along with the alcohol and aldehyde dehydrogenase candidates, we also tested the ability of CoA-dependent succinic semialdehyde dehydrogenases (sucD) to function in this step, due to the similarity of the substrates. Cells were grown to an OD of about 0.5 in LB medium supplemented with 10 mM 4-HB, induced with 1 mM IPTG, and culture broth samples taken after 24 hours and analyzed for BDO as described below.
Finally, the construct was tested for participation in the conversion of 4-HB to BDO. Host strains were transformed with the pZA33-0020-0021 construct described and pZE13-0002, and compared to use of cat2 in BDO production using the aerobic procedure used above in FIG. 5.

Method for Alcohol dehydrogenase: (§1) In Vitro Enzyme Assays. To obtain crude extracts for activity assays, cells were harvested by centrifugation at 4,500 rpm (Beckman-Coulter, Allegera X-15R) for 10 min. The pellets were resuspended in 0.3 mL BugBuster (Novagen) reagent with benzonase and lysozyme, and lysis proceeded for 15 minutes at room temperature with gentle shaking. Cell-free lysate was obtained by centrifugation at 14,000 rpm (Eppendorf centrifuge 5402) for 30 min at 4° C. Cell protein in the sample was determined using the method of Bradford et al., Anal. Biochem. 72:248-254 (1976), and specific enzyme assays conducted as described below. Activities are reported in Units/mg protein, where a unit of activity is defined as the amount of enzyme required to convert 1 mmol of substrate in 1 min. at room temperature. In general, reported values are averages of at least 3 replicate assays.
(§2) Alcohol (ADH) and aldehyde (ALD) dehydrogenase was assayed in the reductive direction using a procedure adapted from several literature sources (Durre et al., FEMS Microbiol. Rev. 17:251-262 (1995); Palosaari and Rogers, J. Bacteriol. 170:2971-2976 (1988) and Welch et al., Arch. Biochem. Biophys. 273:309-318 (1989). The oxidation of NADH is followed by reading absorbance at 340 nm every four seconds for a total of 240 seconds at room temperature. The reductive assays were performed in 100 mM MOPS (adjusted to pH 7.5 with KOH), 0.4 mM NADH, and from 1 to 50 μl of cell extract. The reaction is started by adding the following reagents: 100 μl of 100 mM acetaldehyde or butyraldehyde for ADH, or 100 μl of 1 mM acetyl-CoA or butyryl-CoA for ALD. The Spectrophotometer is quickly blanked and then the kinetic read is started. The resulting slope of the reduction in absorbance at 340 nm per minute, along with the molar extinction coefficient of NAD(P)H at 340 nM (6000) and the protein concentration of the extract, can be used to determine the specific activity.
(§3) Gene candidates for the 4-HB to BDO conversion pathway were next tested for activity when expressed in the E. coli host MG1655 lacI^Q. Recombinant strains containing each gene candidate expressed on pZA33 were grown in the presence of 0.25 mM IPTG for four hours at 37° C. to fully induce expression of the enzyme. Four hours after induction, cells were harvested and assayed for ADH and ALD activity as described above.
Method for Aldehyde dehydrogenase: as §1, §2, §3

Take “0011: Gene ID 0011: adhE, E. coli, Aldehyde/alcohol dehydrogenase [Sample 0011]”: the Alcohol dehydrogenase activity with Alcohol dehydrogenase (Substrate Acetaldehyde) was 0.0093 μmol min^−1 mg cell protein^−1; with Alcohol dehydrogenase (Substrate Butyraldehyde) it was 0.0265 μmol min^−1 mg cell protein^−1. For the same molecule, the values for the Aldehyde dehydrogenase activity with Aldehyde dehydrogenase (Substrate Acetyl-CoA) and in the experiment on Aldehyde dehydrogenase (Substrate Butyryl-CoA) were 0.0095 μmol min^−1 mg cell protein^−1 and 0.0069 μmol min^−1 mg cell protein^−1, respectively.
Regarding `N[C@H](CCO)C(=O)O` [D-homoserine], on homoserine kinase, the kcat was 8.3 ± 1.1 and the “% kcat” value is given as 32%.
With `N[C@H](CO)CCO` [L-2-amino-1,4-butanediol], at homoserine kinase, the kcat is recorded as 2.0 ± 0.5 and the “% kcat” value is 7.9%.
As for `N[C@@H](CCCO)C(=O)O` [L-2-amino-5-hydroxyvalerate], at homoserine kinase, the kcat is 2.5 ± 0.4 and the “% kcat” value was 9.9%.
As to `N[C@@H](CC=O)C(=O)O` [L-aspartate β-semialdehyde], on homoserine kinase, the kcat is recorded as 2.1 ± 0.1 and the “% kcat” value was 8.2%.
As for `CCOC(=O)[C@@H](N)CCO` [L-homoserine ethyl ester], on homoserine kinase, the kcat was 13.6 ± 0.8 and the “% kcat” value is reported as 74%.
As to `CC(C)COC(=O)[C@@H](N)CCO` [L-homoserine isobutyl ester], at homoserine kinase, the kcat is given as 16.4 ± 0.8 and the “% kcat” value was 84%.
In the case of `CC(C)OC(=O)[C@@H](N)CCO` [L-homoserine isopropyl ester], on homoserine kinase, the kcat is 13.6 ± 1.4 and the “% kcat” value is reported as 74%.
`COC(=O)[C@@H](N)CCO` [L-homoserine methyl ester]: on homoserine kinase, the kcat is 14.7 ± 2.6 and the “% kcat” value is recorded as 80%.
Take `CCCOC(=O)[C@@H](N)CCO` [L-homoserine n-propyl ester]: at homoserine kinase, the kcat is reported as 14.0 ± 0.4 and the “% kcat” value is 76%.
As for `N[C@@H](CCO)C(=O)O` [L-homoserine], at homoserine kinase, the kcat is given as 18.3 ± 0.1 and the “% kcat” value is recorded as 100%.
Turning to `CCCCOC(=O)[C@@H](N)CCO` [L-homserine n-butyl ester], on homoserine kinase, the kcat was 29.1 ± 1.2 and the “% kcat” value is on record as 160%.
As to `CC(C)C[C@H](N)C(=O)O` [leucine], in experiment [1], the “activity relative to tyrosine” value is 25%.
Consider `CSCC[C@H](N)C(=O)O` [methionine], for which the “activity relative to tyrosine” value in experiment [1] is given as 25%.
`N[C@@H](Cc1ccccc1)C(=O)O` [phenylalanine]: the “activity relative to tyrosine” value in experiment [1] is reported as 90%.
`N[C@@H](Cc1c[nH]c2ccccc12)C(=O)O` [tryptophan]: the “activity relative to tyrosine” value in experiment [1] is 85%.
In the case of `N[C@@H](Cc1ccc(O)cc1)C(=O)O` [tyrosine], the “activity relative to tyrosine” value in experiment [1] is 100%.

B1: 0026: Gene ID 0026: bdhA, Clostridium acetobutylicum ATCC 824, Butanol dehydrogenase (protein, UniProt Q04944 1-389, looked up)
NADH-dependent butanol …: MLSFDYSIPTKVFFGKGKIDVIGEEIKKYGSRVLIVYGGGSIKRNGIYDRATAILKENNIAFYELSGVEPNPRITTVKKGIEICRENNVDLVLAIGGGSAIDCSKVIAAGVYYDGDTWDMVKDPSKITKVLPIASILTLSATGSEMDQIAVISNMETNEKLGVGHDDMRPKFSVLDPTYTFTVPKNQTAAGTADIMSHTFESYFSGVEGAYVQDGIAEAILRTCIKYGKIAMEKTDDYEARANLMWASSLAINGLLSLGKDRKWSCHPMEHELSAYYDITHGVGLAILTPNWMEYILNDDTLHKFVSYGINVWGIDKNKDNYEIAREAIKNTREYFNSLGIPSKLREVGIGKDKLELMAKQAVRNSGGTIGSLRPINAEDVLEIFKKSY
With B1, the Alcohol dehydrogenase activity in the experiment on Alcohol dehydrogenase (Substrate Acetaldehyde) is 0.0008 μmol min^−1 mg cell protein^−1; with Alcohol dehydrogenase (Substrate Butyraldehyde), 0.0024 μmol min^−1 mg cell protein^−1. Further, the figures for the Aldehyde dehydrogenase activity in the experiment with Aldehyde dehydrogenase (Substrate Acetyl-CoA) and with Aldehyde dehydrogenase (Substrate Butyryl-CoA) were 0.0005 μmol min^−1 mg cell protein^−1 and 0 μmol min^−1 mg cell protein^−1, respectively.

B2: 0034: Gene ID 0034: cat2, Porphyromonas gingivalis W83, 4-hydroxybutyrate coenzyme A transferase (protein, listed as Porphyromonas gingivalis)
chain: MKDVLAEYASRIVSAEEAVKHIKNGERVALSHAAGVPQSCVDALVQQADLFQNVEIYHMLCLGEGKYMAPEMAPHFRHITNFVGGNSRKAVEENRADFIPVFFYEVPSMIRKDILHIDVAIVQLSMPDENGYCSFGVSCDYSKPAAESAHLVIGEINRQMPYVHGDNLIHISKLDYIVMADYPIYSLAKPKIGEVEEAIGRNCAELIEDGATLQLGIGAIPDAALLFLKDKKDLGIHTEMFSDGVVELVRSGVITGKKKTLHPGKMVATFLMGSEDVYHFIDKNPDVELYPVDYVNDPRVIAQNDNMVSINSCIEIDLMGQVVSECIGSKQFSGTGGQVDYVRGAAWSKNGKSIMAIPSTAKNGTASRIVPIIAEGAAVTTLRNEVDYVVTEYGIAQLKGKSLRQRAEALIAIAHPDFREELTKHLRKRFG
Take B2: the BDO/OD is reported as 0.042 in experiment [2] (Host MG1655 lacI^Q) and 0.166 in experiment [2] (Host MG1655 ΔadhE lacI^Q). The BDO turned out to be 0.827 µM in experiment [2] (Host MG1655 lacI^Q, adhE2 in pZE13, aerobic procedure) and 2.084 µM in experiment [2] (Host MG1655 ΔadhE lacI^Q, adhE2 in pZE13, aerobic procedure).

B3: 0002: Gene ID 0002: adhE, Clostridium acetobutylicum ATCC 824, Aldehyde/alcohol dehydrogenase (protein, UniProt P33744 1-862, looked up)
Aldehyde-alcohol dehydrogenase: MKVTTVKELDEKLKVIKEAQKKFSCYSQEMVDEIFRNAAMAAIDARIELAKAAVLETGMGLVEDKVIKNHFAGEYIYNKYKDEKTCGIIERNEPYGITKIAEPIGVVAAIIPVTNPTSTTIFKSLISLKTRNGIFFSPHPRAKKSTILAAKTILDAAVKSGAPENIIGWIDEPSIELTQYLMQKADITLATGGPSLVKSAYSSGKPAIGVGPGNTPVIIDESAHIKMAVSSIILSKTYDNGVICASEQSVIVLKSIYNKVKDEFQERGAYIIKKNELDKVREVIFKDGSVNPKIVGQSAYTIAAMAGIKVPKTTRILIGEVTSLGEEEPFAHEKLSPVLAMYEADNFDDALKKAVTLINLGGLGHTSGIYADEIKARDKIDRFSSAMKTVRTFVNIPTSQGASGDLYNFRIPPSFTLGCGFWGGNSVSENVGPKHLLNIKTVAERRENMLWFRVPHKVYFKFGCLQFALKDLKDLKKKRAFIVTDSDPYNLNYVDSIIKILEHLDIDFKVFNKVGREADLKTIKKATEEMSSFMPDTIIALGGTPEMSSAKLMWVLYEHPEVKFEDLAIKFMDIRKRIYTFPKLGKKAMLVAITTSAGSGSEVTPFALVTDNNTGNKYMLADYEMTPNMAIVDAELMMKMPKGLTAYSGIDALVNSIEAYTSVYASEYTNGLALEAIRLIFKYLPEAYKNGRTNEKAREKMAHASTMAGMASANAFLGLCHSMAIKLSSEHNIPSGIANALLIEEVIKFNAVDNPVKQAPCPQYKYPNTIFRYARIADYIKLGGNTDEEKVDLLINKIHELKKALNIPTSIKDAGVLEENFYSSLDRISELALDDQCTGANPRFPLTSEIKEMYINCFKKQP
As for B3, the BDO/OD in experiment [2] (Aerobic) came out at 15.2; in experiment [2] (Anaerobic) it was 40.5; in experiment [2] (Microaerobic), 8.73. Also, the BDO amounted to 138.3 µM in experiment [2] (Aerobic, 10 mM 4-HB, 24 hours, cat2 (0034) on pZA33); 54.7 µM in experiment [2] (Anaerobic, 10 mM 4-HB, 24 hours, cat2 (0034) on pZA33); 48.2 µM in experiment [2] (Microaerobic, 10 mM 4-HB, 24 hours, cat2 (0034) on pZA33). Also, the Alcohol dehydrogenase activity is 0.0247 μmol min^−1 mg cell protein^−1 in the experiment on Alcohol dehydrogenase (Substrate Acetaldehyde) and 0.0264 μmol min^−1 mg cell protein^−1 in the experiment with Alcohol dehydrogenase (Substrate Butyraldehyde). Moreover, the values for the Aldehyde dehydrogenase activity in the experiment with Aldehyde dehydrogenase (Substrate Acetyl-CoA) and with Aldehyde dehydrogenase (Substrate Butyryl-CoA) were 0.0046 μmol min^−1 mg cell protein^−1 and 0.0076 μmol min^−1 mg cell protein^−1, respectively.

B4: 0013: Gene ID 0013: bdhB, Clostridium acetobutylicum ATCC 824, Butanol dehydrogenase II (protein, UniProt Q04945 1-390, looked up)
NADH-dependent butanol …: MVDFEYSIPTRIFFGKDKINVLGRELKKYGSKVLIVYGGGSIKRNGIYDKAVSILEKNSIKFYELAGVEPNPRVTTVEKGVKICRENGVEVVLAIGGGSAIDCAKVIAAACEYDGNPWDIVLDGSKIKRVLPIASILTIAATGSEMDTWAVINNMDTNEKLIAAHPDMAPKFSILDPTYTYTVPTNQTAAGTADIMSHIFEVYFSNTKTAYLQDRMAEALLRTCIKYGGIALEKPDDYEARANLMWASSLAINGLLTYGKDTNWSVHLMEHELSAYYDITHGVGLAILTPNWMEYILNNDTVYKFVEYGVNVWGIDKEKNHYDIAHQAIQKTRDYFVNVLGLPSRLRDVGIEEEKLDIMAKESVKLTGGTIGNLRPVNASEVLQIFKKSV
Turning to B4, the Alcohol dehydrogenase activity in the experiment on Alcohol dehydrogenase (Substrate Acetaldehyde) is listed as 0.0142 μmol min^−1 mg cell protein^−1; with Alcohol dehydrogenase (Substrate Butyraldehyde), 0.0130 μmol min^−1 mg cell protein^−1.
